The text below walks through data of publication PMC2639213 (Journal of medicinal chemistry, 2008).

This assay addresses APSR (Mycobacterium tuberculosis, UniProt P9WIK3). Briefly: standard radioactive assay measuring APSR reduction of 35S-labeled APS substrate. The assay is classed as biochemical, M. tuberculosis. Particulars: for inhibition at 100 µM: read-out: inhibition of APSR activity, tested at 100 μM.

Each structure is given as a SMILES string. A value given as a limit tells only on which side of the number the result lay.

APSR, sequence (P9WIK3 whole entry): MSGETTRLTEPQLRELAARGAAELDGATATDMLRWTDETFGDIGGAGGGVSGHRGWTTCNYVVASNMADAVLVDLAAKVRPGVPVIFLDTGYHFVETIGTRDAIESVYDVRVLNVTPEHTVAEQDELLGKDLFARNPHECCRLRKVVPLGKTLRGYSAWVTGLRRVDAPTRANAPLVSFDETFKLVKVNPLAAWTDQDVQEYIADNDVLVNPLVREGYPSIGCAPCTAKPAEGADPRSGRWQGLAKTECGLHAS

Regarding `O=C(O)CCc1nnc2c3ccccc3c3ccccc3c2n1` [NSC 327704], the inhibition at 100 µM was above 50%. As to `O=C1c2ccccc2-c2ccccc21` [9-fluorenone], the “activity against APSR (in words)” value was “neither 9-fluorenone nor 2-nitro-9-fluorenone, which are closely related to 133896, exhibited significant activity”. As for `O=C1c2ccccc2-c2ccc([N+](=O)[O-])cc21` [2-nitro-9-fluorenone], the “activity against APSR (in words)” value is listed as “neither 9-fluorenone nor 2-nitro-9-fluorenone, which are closely related to 133896, exhibited significant activity”. For `O=C1c2ccccc2-c2cc([N+](=O)[O-])c([N+](=O)[O-])cc21` [NSC 133896], the inhibition at 100 µM is above 50%.

What is called inhibition is the share of the control response that was lost under treatment.
